Data: ChEMBL document CHEMBL4014304, “New potent and selective αvβ3 integrin ligands: Macrocyclic peptides containing RGD motif synthesized by sortase A-mediated ligation” (Bioorg Med Chem Lett, 2017)
Numbered stars: 1 amine (or outer) side, 2 acyl side, 3 side chain; on linkers, the order of the positions; unused ones are H or OH. Square brackets hold non-standard residues; d marks the D form. Peptide text beside a SMILES is read from it. X1 = C[C@@H](O)[C@H](N[*:1])C(=O)NC(=O)[*:2]

How the values were obtained:
Format in all cases: cell-based
Integrin alpha-V/beta-5 = Integrin alpha-V/beta-5 (Homo sapiens, UniProt P06756+P18084); assay: Antagonist activity at integrin alphaVbeta5 (unknown origin) expressed in HT-29 cells assessed as reduction in cell adhesion to vitronectin after 2 hrs by MTT assay
Integrin alpha-V/beta-5, sequence (P06756 31-889 limits assumed): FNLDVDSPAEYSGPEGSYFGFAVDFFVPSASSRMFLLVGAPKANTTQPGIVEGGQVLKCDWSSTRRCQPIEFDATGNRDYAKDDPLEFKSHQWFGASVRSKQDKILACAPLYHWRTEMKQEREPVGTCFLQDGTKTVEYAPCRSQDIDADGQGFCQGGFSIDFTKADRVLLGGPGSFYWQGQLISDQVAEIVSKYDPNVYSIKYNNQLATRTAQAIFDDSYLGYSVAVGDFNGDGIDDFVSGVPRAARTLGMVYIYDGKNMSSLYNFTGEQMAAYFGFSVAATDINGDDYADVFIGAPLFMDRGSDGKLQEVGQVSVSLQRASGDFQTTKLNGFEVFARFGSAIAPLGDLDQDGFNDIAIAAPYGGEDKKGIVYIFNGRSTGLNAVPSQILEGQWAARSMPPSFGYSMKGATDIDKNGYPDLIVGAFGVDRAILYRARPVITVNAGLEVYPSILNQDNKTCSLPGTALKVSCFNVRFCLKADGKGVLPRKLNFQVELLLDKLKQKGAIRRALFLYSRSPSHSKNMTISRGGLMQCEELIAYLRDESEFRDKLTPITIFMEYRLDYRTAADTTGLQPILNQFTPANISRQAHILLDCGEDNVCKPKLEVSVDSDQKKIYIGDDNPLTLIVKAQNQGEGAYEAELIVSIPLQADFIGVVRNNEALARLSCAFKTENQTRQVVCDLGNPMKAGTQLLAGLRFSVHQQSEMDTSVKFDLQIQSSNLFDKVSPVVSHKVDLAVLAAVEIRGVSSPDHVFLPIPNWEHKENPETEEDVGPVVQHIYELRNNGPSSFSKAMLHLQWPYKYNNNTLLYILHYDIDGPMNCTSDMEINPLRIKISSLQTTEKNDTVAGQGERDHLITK
Integrin alpha-V/beta-5, sequence (P06756 891-1048 limits assumed): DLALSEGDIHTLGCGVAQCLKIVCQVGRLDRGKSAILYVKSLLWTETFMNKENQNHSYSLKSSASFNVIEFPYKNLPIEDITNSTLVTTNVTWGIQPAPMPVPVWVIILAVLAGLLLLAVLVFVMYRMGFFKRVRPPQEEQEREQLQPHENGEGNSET
Integrin alpha-V/beta-5, sequence (P18084 24-799 limits assumed): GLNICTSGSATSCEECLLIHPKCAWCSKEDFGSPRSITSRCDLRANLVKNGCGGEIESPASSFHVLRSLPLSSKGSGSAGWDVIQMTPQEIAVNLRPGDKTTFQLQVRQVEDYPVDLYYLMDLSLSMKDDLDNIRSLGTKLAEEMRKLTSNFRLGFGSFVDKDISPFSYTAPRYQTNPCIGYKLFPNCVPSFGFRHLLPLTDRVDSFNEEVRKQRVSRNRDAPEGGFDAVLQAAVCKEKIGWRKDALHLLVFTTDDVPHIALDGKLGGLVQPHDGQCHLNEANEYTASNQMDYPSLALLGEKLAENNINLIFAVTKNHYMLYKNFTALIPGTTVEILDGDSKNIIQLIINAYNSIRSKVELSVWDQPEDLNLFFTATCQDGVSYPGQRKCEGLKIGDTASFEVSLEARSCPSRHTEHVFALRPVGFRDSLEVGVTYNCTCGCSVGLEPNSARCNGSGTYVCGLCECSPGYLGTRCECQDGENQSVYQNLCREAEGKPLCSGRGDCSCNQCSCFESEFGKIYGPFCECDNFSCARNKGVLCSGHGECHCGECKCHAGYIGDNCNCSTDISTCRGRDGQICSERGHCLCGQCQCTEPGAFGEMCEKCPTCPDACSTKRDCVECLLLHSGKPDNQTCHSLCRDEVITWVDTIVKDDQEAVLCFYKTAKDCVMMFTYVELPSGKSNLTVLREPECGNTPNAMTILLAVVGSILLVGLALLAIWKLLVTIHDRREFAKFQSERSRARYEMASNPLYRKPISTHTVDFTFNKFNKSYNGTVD

Integrin alpha-V/beta-3 = Integrin alpha-V/beta-3 (Homo sapiens, UniProt P05106+P06756); assay: Antagonist activity at integrin alphaVbeta3 (unknown origin) expressed in HEK293 cells assessed as reduction in cell adhesion to fibrinogen after 2 hrs by MTT assay
Integrin alpha-V/beta-3, sequence (P05106 27-788 limits assumed): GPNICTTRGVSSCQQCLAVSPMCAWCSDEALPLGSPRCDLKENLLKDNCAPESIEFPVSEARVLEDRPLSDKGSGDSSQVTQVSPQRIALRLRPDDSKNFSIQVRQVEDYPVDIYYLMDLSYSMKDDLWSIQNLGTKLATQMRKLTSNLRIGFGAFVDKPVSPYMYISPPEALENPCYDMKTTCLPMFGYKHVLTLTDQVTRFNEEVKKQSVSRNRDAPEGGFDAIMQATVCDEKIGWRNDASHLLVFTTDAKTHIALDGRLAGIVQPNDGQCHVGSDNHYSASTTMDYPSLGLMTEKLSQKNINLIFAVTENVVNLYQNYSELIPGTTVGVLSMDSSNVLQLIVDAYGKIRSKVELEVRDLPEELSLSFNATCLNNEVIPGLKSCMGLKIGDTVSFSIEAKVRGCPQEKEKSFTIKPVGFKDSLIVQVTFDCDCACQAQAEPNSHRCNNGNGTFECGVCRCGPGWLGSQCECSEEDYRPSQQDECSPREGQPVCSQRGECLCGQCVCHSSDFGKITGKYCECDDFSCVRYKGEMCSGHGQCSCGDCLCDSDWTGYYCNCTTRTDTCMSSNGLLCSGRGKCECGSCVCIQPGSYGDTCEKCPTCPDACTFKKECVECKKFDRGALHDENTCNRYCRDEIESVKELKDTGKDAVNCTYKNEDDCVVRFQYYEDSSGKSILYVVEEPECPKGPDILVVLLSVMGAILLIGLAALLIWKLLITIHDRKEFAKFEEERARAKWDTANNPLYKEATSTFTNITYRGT
Integrin alpha-V/beta-3, sequence (P06756 31-889 limits assumed): as the sequence (P06756 31-889 limits assumed) above
Integrin alpha-V/beta-3, sequence (P06756 891-1048 limits assumed): as the sequence (P06756 891-1048 limits assumed) above

[1] = molecular target: Integrin alpha-V/beta-3/alpha-V/beta-5 (Homo sapiens, UniProt P05106+P06756+P18084); assay: Antagonist activity at integrin alphaVbeta3alphaVbeta5 (unknown origin) expressed in SKOV3 cells assessed as reduction in cell adhesion to fibrinogen after 2 hrs by MTT assay
Integrin alpha-V/beta-3/alpha-V/beta-5, sequence (P05106 27-788 limits assumed): as the sequence (P05106 27-788 limits assumed) above
Integrin alpha-V/beta-3/alpha-V/beta-5, sequence (P06756 31-889 limits assumed): as the sequence (P06756 31-889 limits assumed) above
Integrin alpha-V/beta-3/alpha-V/beta-5, sequence (P06756 891-1048 limits assumed): as the sequence (P06756 891-1048 limits assumed) above
Integrin alpha-V/beta-3/alpha-V/beta-5, sequence (P18084 24-799 limits assumed): as the sequence (P18084 24-799 limits assumed) above

Homo sapiens [2] = organism: Homo sapiens; assay: Selectivity ratio of IC50 for integrin alphaVbeta5 (unknown origin) expressed in HT-29 cells to IC50 for integrin alphaVbeta3alphaVbeta5 (unknown origin) expressed in SKOV3 cells
Homo sapiens [3] = organism: Homo sapiens; assay: Selectivity ratio of IC50 for integrin alphaVbeta5 (unknown origin) expressed in HT-29 cells to IC50 for integrin alphaVbeta3 (unknown origin) expressed in HEK293 cells

Compound | IC50 (Integrin alpha-V/beta-5) | IC50 (Integrin alpha-V/beta-3) | IC50 [1] | Ratio IC50 (Homo sapiens [2]) | Ratio IC50 (Homo sapiens [3])
H-GGGGGGGRGDLPETGGS-OH | 2950 µM | 171 µM | 102 µM |  | 
H-GGGGRGDRGDLPETGGS-OH | 1730 µM | 33 µM | 4 µM | > 400 | > 50
H-RGDRGD-OH | 546 µM | 619 µM | 753 µM |  | 

These reach a lower IC50 (Integrin alpha-V/beta-5). Values come first.

IC50 (Integrin alpha-V/beta-5) | IC50 (Integrin alpha-V/beta-3) | IC50 [1] | Compound | Ratio IC50 (Homo sapiens [2]) | Ratio IC50 (Homo sapiens [3])
26 µM | 48.8 µM | 26 µM | CC(C)C[C@@H]1NC(=O)[C@H](CC(=O)O)NC(=O)CNC(=O)[C@H](CCCNC(=N)N)NC(=O)[C@H](CC(=O)O)NC(=O)CNC(=O)[C@H](CCCNC(=N)N)NC(=O)CNC(=O)CNC(=O)CNC(=O)CNC(=O)[C@H]([C@@H](C)O)NC(=O)[C@H](CCC(=O)O)NC(=O)[C@@H]2CCCN2C1=O (cyclo(RGDLPETGGGGRGD)) |  | 
380 µM | 257 µM | 136 µM | CC(C)C[C@@H]1NC(=O)[C@H](CC(=O)O)NC(=O)CNC(=O)[C@H](CCCNC(=N)N)NC(=O)[C@H](CC(=O)O)NC(=O)CNC(=O)[C@H](CCCNC(=N)N)NC(=O)[C@H](CC(=O)O)NC(=O)CNC(=O)[C@H](CCCNC(=N)N)NC(=O)CNC(=O)[C@H]([C@@H](C)O)NC(=O)[C@H](CCC(=O)O)NC(=O)[C@@H]2CCCN2C1=O (cyclo(RGDLPETGRGDRGD)) |  | 
522 µM | 7.2 µM | 19 µM | CC(C)C[C@@H]1NC(=O)[C@H](CC(=O)O)NC(=O)CNC(=O)[C@H](CCCNC(=N)N)NC(=O)CNC(=O)CNC(=O)CNC(=O)CNC(=O)CNC(=O)CNC(=O)CNC(=O)NC(=O)[C@H]([C@@H](C)O)NC(=O)[C@H](CCC(=O)O)NC(=O)[C@@H]2CCCN2C1=O (cyclo(RGDLPE[X1]GGGGGGG)) |  | 
25 µM | 152 µM | 74 µM | H-GRGDRGDRGDLPETGGS-OH |  | 
